Test results published in PubChem BioAssay AID1963856 (Molecular Pharmacology Branch, DTP, NCI, 2024).

Tested on: LG0567-F671-PDC KRAS tumor spheroid viability
Assay: Anticancer human tumor LG0567-F671-PDC patient-derived lung adenocarcinoma cell line growth inhibition [KRAS2]
Details: spheroids with HUVEC and MSC; for IC50: curve of first compound; for viability, T/C: stronger effect = lower value
Excerpt: Multicellular complex tumor spheroid response to RAS pathway inhibitors in combination with a targeted agents in patient-derived cell lines with oncogenic KRAS variants from multiple cancer types
A high-throughput screen of multi-cell type tumor spheroids was designed to identify active combinations of targeted small molecules and KRAS pathway inhibitors. Complex spheroids include a stromal component modeled by human endothelial cells (HUVEC) and fibroblasts modeled by human mesenchymal stem cells (MSCs). The concentration ranges selected for each drug and investigational agent were based upon clinically achievable concentrations if the clinical Cmax of the agent was known.
Compounds. The drugs and investigational agents: BI-3406 (NSC825286), BAY-293 (NSC824723), batoprotafib (TNO155; NSC825523), sotorasib (AMG 510; NSC818433), MRTX1257 (NSC819558), elimusertib (BAY 1895344; NSC800525), molibresib (GSK525762; NSC774829), temuterkib (LY3214996; NSC803410), venetoclax (NSC766270), alisertib (NSC759677), olaparib (NSC753686), talazoparib (NSC767125), erdafitinib (NSC781556), ipatasertib (NSC767898), cabozantinib (NSC761068), nintedanib (NSC756659), abemaciclib (NSC768073), docetaxel (NSC628503), trametinib (NSC758246), and sapanisertib (NSC764658) were obtained from the National Cancer Institute (NCI) Developmental Therapeutics Program Chemical Repository. The FDA-approved anticancer drug set is available from the Developmental Therapeutics Program. […] The stock solutions were prepared in dimethyl sulfoxide (DMSO, Sigma-Aldrich, St. Louis, MO, cat. D2650) at 800-fold the tested concentration and stored at -70 degrees C prior to their use. All drugs and investigational agents were tested over a range starting from a high concentration at or near the clinical Cmax and decreasing in half-log increments. If the clinical Cmax for an agent had not been determined, the highest concentration tested was 10 microM.
Cell Culture. All cells were maintained in an incubator at 37 degrees C and 5% CO2 with 95% humidity. The PDC lines were cultured according to standard operating procedures established by the NCI PDMR (https://pdmr.cancer.gov/sops/default.htm). Briefly, all PDCs were thawed and cultured in Matrigel-coated flasks prepared with a working solution of 1X Ham's F-12 nutrient mix, without supplementation (Invitrogen, Waltham, MA, cat. 11765054), 100 U/mL penicillin-streptomycin (Invitrogen, cat. 15140122), and 2.5% Matrigel (Corning Inc., Corning, NY, cat. 354248) for the first three passages. All PDCs were cultured in complete DMEM/F-12 media containing advanced DMEM/F-12 (Invitrogen, cat. 12634028), 4.9% defined fetal bovine serum, heat inactivated (HyClone Laboratories Inc., Logan, UT, cat. SH30070.03HI), 389 ng/mL hydrocortisone (Sigma-Aldrich, cat. H4001), 9.7 ng/mL human EGF recombinant protein (Invitrogen, cat. PHG0313), 23.4 microg/mL adenine (Sigma-Aldrich, cat. A2786), 97.3 U/mL penicillin-streptomycin (Invitrogen, cat. 15140122), 1.9 mM L-glutamine (Invitrogen, cat. 25030081), and 9.7 microM Y-27632 dihydrochloride (Tocris Bioscience, Bristol, United Kingdom, cat. 1254). The PDCs were cultured in complete DMEM/F12 media without 9.7 microM Y-27632 dihydrochloride for at least two passages prior to the screen. The established cell line HOP-62 was cultured in RPMI 1640 medium, HEPES (Invitrogen, cat. 22400105) with 10% defined fetal bovine serum (HyClone Laboratories Inc., cat. SH30070.03) and 2 mM L-glutamine (Invitrogen, cat. 25030081). The pooled donor HUVEC were cultured in endothelial cell growth medium 2 (PromoCell, Heidelberg, Germany, cat. C-22011) and the hMSC were cultured in mesenchymal stem cell growth medium 2 (PromoCell, cat. C-28009). For all experiments, HUVEC and hMSC were used at passages </=5, while the malignant cell lines were used at passages </=15. […]

[1] = second compound 0.1 µM, first compound 0.01 µM
[2] = second compound 0.1 µM, first compound 0.0316 µM
[3] = second compound 0.1 µM, first compound 0.1 µM
[4] = second compound 0.1 µM, first compound 0.316 µM
[5] = second compound 0.1 µM, first compound 1 µM
[6] = second compound 0.316 µM, first compound 0.01 µM
[7] = second compound 0.316 µM, first compound 0.0316 µM
[8] = second compound 0.316 µM, first compound 0.1 µM
[9] = second compound 0.316 µM, first compound 0.316 µM
[10] = second compound 0.316 µM, first compound 1 µM
[11] = second compound 1 µM, first compound 0.0316 µM
[12] = second compound 1 µM, first compound 0.1 µM
[13] = second compound 1 µM, first compound 0.316 µM
[14] = second compound 1 µM, first compound 1 µM
[15] = second compound 3.16 µM, first compound 0.01 µM
[16] = second compound 3.16 µM, first compound 0.0316 µM
[17] = second compound 3.16 µM, first compound 0.1 µM
[18] = second compound 3.16 µM, first compound 0.316 µM
[19] = second compound 3.16 µM, first compound 1 µM
[20] = second compound 10 µM, first compound 0.01 µM
[21] = second compound 10 µM, first compound 0.0316 µM
[22] = second compound 10 µM, first compound 0.1 µM
[23] = second compound 10 µM, first compound 0.316 µM
[24] = second compound 10 µM, first compound 1 µM
[25] = second compound 0.1 µM, first compound 3.16 µM
[26] = second compound 0.316 µM, first compound 3.16 µM
[27] = second compound 3.16 µM, first compound 3.16 µM
[28] = second compound 10 µM, first compound 3.16 µM
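Also: drug exposure lasted seven days after spheroids formed for three days.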
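For viability, T/C in this document: 100% = DMSO vehicle control viability.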

| SMILES | IC50 (second compound 0.1 µM) [µM] | IC50 (second compound 0.316 µM) [µM] | IC50 (second compound 3.16 µM) [µM] | IC50 (second compound 10 µM) [µM] | viability, T/C [2] [%] | viability, T/C [3] [%] | viability, T/C [4] [%] | viability, T/C [5] [%] | viability, T/C [7] [%] | viability, T/C [8] [%] | viability, T/C [9] [%] | viability, T/C [10] [%] | viability, T/C [16] [%] | viability, T/C [17] [%] | viability, T/C [18] [%] | viability, T/C [19] [%] | viability, T/C [21] [%] | viability, T/C [22] [%] | viability, T/C [23] [%] | viability, T/C [24] [%] | also measured |
| --- | --- | --- | --- | --- | --- | --- | --- | --- | --- | --- | --- | --- | --- | --- | --- | --- | --- | --- | --- | --- | --- |
| CCN1CCN(Cc2ccc(Nc3ncc(F)c(-c4cc(F)c5nc(C)n(C(C)C)c5c4)n3)nc2)CC1 + COc1cc2nc(C)nc(NC(C)c3cc(N)cc(C(F)(F)F)c3)c2cc1OC1CCOC1 | 0.913 | 0.0473 | < 0.00316 | 0.00532 | 54.3 | 56.7 | 54.8 | 47.3 | 51.5 | 47.5 | 44.2 | 45.3 | 34.7 | 33.6 | 29.4 | 30.8 | 26.5 | 9.45 | 0.94 | 0.43 | IC50 (second compound 1 µM): 0.00774 µM; viability, T/C (second compound 0.1 µM, first compound 0.00316 µM): 70.5%; viability, T/C [1]: 64.7%; viability, T/C (second compound 0.316 µM, first compound 0.00316 µM): 69%; viability, T/C [6]: 64.2%; viability, T/C (second compound 1 µM, first compound 0.00316 µM): 57.3%; viability, T/C (second compound 1 µM, first compound 0.01 µM): 47.3%; viability, T/C [11]: 45.7%; viability, T/C [12]: 38.7%; viability, T/C [13]: 32.2%; viability, T/C [14]: 42.4%; viability, T/C (second compound 3.16 µM, first compound 0.00316 µM): 44.4%; viability, T/C [15]: 39.5%; viability, T/C (second compound 10 µM, first compound 0.00316 µM): 60.8%; viability, T/C [20]: 34.8% |
| COC(=O)c1ccc2c(C(=Nc3ccc(N(C)C(=O)CN4CCN(C)CC4)cc3)c3ccccc3)c(O)[nH]c2c1 + C=CC(=O)N1CCN(c2nc(=O)n(-c3c(C)ccnc3C(C)C)c3nc(-c4c(O)cccc4F)c(F)cc23)C(C)C1 | < 0.0316 | < 0.0316 | < 0.0316 | < 0.0316 | 23.1 | 22 | 25.9 | 28.3 | 20.8 | 23.3 | 20.1 | 23.2 | 18.8 | 18.8 | 19.6 | 22.6 | 26.3 | 24.4 | 22.2 | 24.6 | IC50 (second compound 1 µM): < 0.0316 µM; viability, T/C [25]: 30%; viability, T/C (second compound 0.1 µM, first compound 10 µM): 33%; viability, T/C [26]: 29.7%; viability, T/C (second compound 0.316 µM, first compound 10 µM): 27.9%; viability, T/C [11]: 21.7%; viability, T/C [12]: 22%; viability, T/C [13]: 21.6%; viability, T/C [14]: 32%; viability, T/C (second compound 1 µM, first compound 3.16 µM): 26.6%; viability, T/C (second compound 1 µM, first compound 10 µM): 30.1%; viability, T/C [27]: 28%; viability, T/C (second compound 3.16 µM, first compound 10 µM): 30.1%; viability, T/C [28]: 27.9%; viability, T/C (second compound 10 µM, first compound 10 µM): 1.41% |
| CC(=O)OC12COC1CC(O)C1(C)C(=O)C(O)C3=C(C)C(OC(=O)C(O)C(NC(=O)OC(C)(C)C)c4ccccc4)CC(O)(C(OC(=O)c4ccccc4)C21)C3(C)C (stereo not drawn) + CC1OCC2(CCN(c3cnc(Sc4ccnc(N)c4Cl)c(N)n3)CC2)C1N | < 0.01 | < 0.01 | < 0.01 | < 0.01 | 39.4 | 38.7 | 40.4 | 48 | 26.7 | 24.9 | 22.1 | 28.1 | 12.3 | 10.3 | 10.6 | 11.9 | 9.36 | 11.2 | 9.93 | 12.9 | viability, T/C [1]: 41.6%; viability, T/C [25]: 38.6%; viability, T/C [6]: 26.7%; viability, T/C [26]: 20.6%; viability, T/C [15]: 14.7%; viability, T/C [27]: 10.3%; viability, T/C [20]: 14.9%; viability, T/C [28]: 9.85% |
